Results from patent EP2329817A1, “Retinoic acid receptor antagonists, miR-10a inhibitors and inhibitors of HOXB1 or HOXB3 repressors for treating pancreatic cancer” (Ernst-Moritz-Arndt-Universität Greifswald, priority 2009, dated 2011).
Values joined by “and” are separate entries in the source; they are usually repeats but may differ in a detail not shown here. Equal entries are not always repeated.

Tested on: PaTu-T cells
Test: Zebrafish embryo xenotransplantation: invasion and metastatic behaviour of pretreated PaTu-T cells
Assay type: in vivo, human
Method: Zebrafish (Danio rerio) (Tuebingen line, AIB strain (Albinos) and Tg (fli1:eGFP) were handled in compliance with local animal care regulations and standard protocols of the Netherlands and Germany. Fish were kept at 28°C in aquaria with day/night light cycles (10 h dark versus 14 h light periods). The developing embryos were kept in an incubator at constant temperatures.
The selective RARα antagonist Ro-41-5253 was purchased from Biomol International, dissolved in DMSO and cells were treated overnight prior to injections at a final concentration of 200 nM (50% inhibition at 60nM)^14,15. Retinoic acid (ATRA, Sigma) was added to cells ON at a final concentration of 1 µM.
Cells were stained with CM-Dil (red fluorescence) at a 1:1000 dilution according to the manufacturers protocol (Vybrant, Invitrogen). Cells were suspended in 67% DPBS for injection into embryos. 2dpf zebrafish embryos were dechorionated and tranquilized with tricaine (Sigma). An injection needle (15µm diameter) with a manual injector (Eppendorf; Celltram Vario) was used to inject ∼200 cells into the yolk sac of 2dpf zebrafish embryos. On average 80 embryos were injected for each treatment and embryos with detectable cell scatter 2 h after the transfer (and therefore presumably due to the transfer procedure) were excluded from further analysis. Presence of cells was checked after 2 h incubation at 31°C and embryos were subsequently kept at 35°C. We defined metastasis based on the number of fluorescent cells that were detected outside the yolk sac 2 days after the transfer. Presence of 5 or more cells was considered "metastasised" and percentages of metastasised fish in each experiment were counted. The occurence of micro-metastasis is indicated by cell clusters of ≥4 cells presumably originating from cell division. PaTu-S cells and ASPC1 cells were transfected ON with indicated concentrations of miR-10a siRNA in the presence of ICA-Fectin TM442 (Eurogentec, Belgium). Whole cell lysates were prepared 36h post-transfection and 40 µg of total lysates were separated on 7.5% PAA-gels and blotted with anti E-cadherin, α-catenin, β-catenin (all mAbs, Transduction Labs) and actin antibodies (mAb Sigma-Aldrich, Germany).
Morpholino antisense oligonucleotides were obtained from Gene Tools, LLC (OR, USA) and used as previously described^19. The miR-10a antisense Morpholino sequence is: […]. Standard control Morpholino was […]. Both miR-10a and control Morpholinos were fluorescein labeled. The siRNAs for human HOXB1, human HOXB3 and human RARα were purchased from Santa Cruz Biotechnology (HOXB1: sc-38686, HOXB3: sc-38690 and RARα: sc-29465). EndoPorter (Gene Tools, LLC) was used to deliver Morpholinos and siRNAs into cells and efficiencies for Morpholinos were checked by fluorescence microscopy to be >98%. For the miR-10a siRNA, the sense strand corresponds to […]. The sequence of control siRNA (miR-196a) was […] with the corresponding antisense sequence). 30 µl of each siRNA oligo (50 µM) were annealed by gradually cooling from 98°C to 20°C in a volume of 75 µl annealing buffer (50 mM Tris, pH 7.8, 100 mM NaCl RNAse free). The effect of miR-10a Morpholinos on miR-10a function was tested with a sensor construct: pCS2+ EGFP 4x miR-10 AS containing 4 copies of a miR-10a antisense sequence.

[1] = Experiment 1, Day 1, number of embryos
[2] = Experiment 1, Day 2, number of embryos
[3] = Experiment 1, Day 3, number of embryos
[4] = Experiment 2, Day 1, number of embryos
[5] = Experiment 2, Day 2, number of embryos
[6] = Experiment 2, Day 3, number of embryos

CCCCCCCOc1cc2c(cc1/C(C)=C/c1ccc(C(=O)O)cc1)C(C)(C)CCS2(=O)=O [Ro-41-5253, Benzoic acid, 4-(2-(7-(heptyloxy)-3,4-dihydro-4,4-dimethyl-2H-1-benzothiopyran-6-yl)-1-propenyl)-, S,S-dioxide, (E)]
total >5 (Experiment 1, number of embryos (equals the Day 1 total)): 1 | Migration 5 to 20 [1]: 1 | Migration <5 [1]: 0 | Migration >20 [1]: 0 | total >5 [1]: 1 | Migration 5 to 20 [2]: 0 | Migration <5 [2]: 0 | Migration >20 [2]: 0 | total >5 [2]: 0 | Migration 5 to 20 [3]: 0 | Migration <5 [3]: 0 | Migration >20 [3]: 0 | total >5 [3]: 0 | total >5 (Experiment 1, summary line, percentage in brackets (of embryos alive)): 1.4% | total >5 (Experiment 2, number of embryos (equals the Day 1 total)): 2 | Migration 5 to 20 [4]: 2 | Migration <5 [4]: 0 | Migration >20 [4]: 0 | total >5 [4]: 2 | Migration 5 to 20 [5]: 2 | Migration <5 [5]: 0 | Migration >20 [5]: 0 | total >5 [5]: 2 | Migration 5 to 20 [6]: 0 | Migration <5 [6]: 0 | Migration >20 [6]: 0 | total >5 [6]: 0 | total >5 (Experiment 2, summary line, percentage in brackets (of embryos alive)): 2.9% | Average % (observed metastasised embryos) (Table 1, pretreated PaTu-T cells transplanted into zebrafish embryos, average of 2-4 experiments): 2.2% | %migration, Average (average of experiments, PaTu-T): 2.2% | %migration (single experiments, PaTu-T, listed as RARαinhibitor): 1.4% and 2.9%
